From article PMC9402538, “Rational design of a sensitivity-enhanced tracer for discovering efficient APC–Asef inhibitors” (Nature Communications, 2022)
Like-named read-outs stand apart in the source and are kept apart here. Where a SMILES comes first, the peptide text is derived from it. [ ]: non-standard residue; d: D form. The star is where a group is joined. Bpa = N[C@@H](Cc1ccc(C(=O)c2ccccc2)cc1)C(=O)O; 2Furoyl = O=C(c1ccco1)*; X1 = CSc1nccc(C(=O)*)n1; Bz = O=C(c1ccccc1)*

Experiments:
[1] = molecular target: T1, APC (303–739) (Homo sapiens, UniProt P25054); assay: FP competitive assay using tracer 7; assay type: binding; settings: IC50, Tracer 7, Supplementary Table 4
T1 sequence (P25054 303-739): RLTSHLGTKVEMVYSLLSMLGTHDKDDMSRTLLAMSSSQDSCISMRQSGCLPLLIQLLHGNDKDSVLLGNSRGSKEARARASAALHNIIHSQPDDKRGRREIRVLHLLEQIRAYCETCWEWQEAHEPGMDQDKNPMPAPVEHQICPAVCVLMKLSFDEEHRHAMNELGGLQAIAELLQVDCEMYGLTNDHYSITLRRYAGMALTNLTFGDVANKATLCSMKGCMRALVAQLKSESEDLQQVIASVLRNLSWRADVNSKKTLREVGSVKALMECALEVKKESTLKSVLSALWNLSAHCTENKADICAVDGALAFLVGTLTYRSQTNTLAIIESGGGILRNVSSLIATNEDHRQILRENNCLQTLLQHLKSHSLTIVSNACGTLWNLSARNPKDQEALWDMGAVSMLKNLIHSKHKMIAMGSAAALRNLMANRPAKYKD
Experimental: (§1) FITC-labeled tracer peptides were obtained from Changzhou Kanglong Biotech Ltd. (Changzhou, Jiangsu, China). […]. The FP signal changes upon tracer binding were measured after 1.5 h of incubation using a Synergy neo microplate reader (BioTek Instruments, Inc.) and plotted against the protein concentration. The corresponding EC50 values were generated by fitting the curves with a nonlinear regression model. […]. To make a working solution, APC (303–739) was diluted in FP buffer (50 mM HEPES, pH 7.5, 300 mM NaCl, 1 mM EDTA, 1 mM DTT). The diluted APC protein (91 μL) was combined with a serial dilution of peptides (4 μL) and incubated at room temperature for 1 h, followed by the addition of 5 μL of 400 nM tracer 7. The FP signals were measured after 1.5 h of incubation at room temperature using a Synergy neo microplate reader. Three controls were included on each plate, i.e., blank (without protein and tracer), 100% inhibition (free tracer only), and 0% inhibition (protein/tracer complex only) controls. All experiments were performed in triplicate. The IC50 values of peptides were calculated by nonlinear regression analysis using GraphPad Prism 7.0 software.

[2] = molecular target: T2, APC (Homo sapiens, UniProt P25054); assay: FP competitive assay using tracer 1; assay type: binding
T2 sequence (P25054 303-739): T1 sequence (P25054 303-739)
Experimental: In our previous study, we established an FP assay for screening APC–Asef inhibitors using FITC-labeled tracer 1 (Ac–^176[…][FITC]^195–NH2)[16]. […]. However, their Kd values measured by isothermal titration calorimetry (ITC) actually vary up to more than 20 times[16],[17]. […].
as §1, with “The diluted APC protein (91 μL) was combined with a serial dilution of peptides (4 μL) and incubated at room temperature for 1 h, followed by the addition of 5 μL of 400 nM tracer 7.” left out

Row | Structure (SMILES) | IC50 [1] | IC50 [2] | IC50 ([2]; Supplementary Table 4, read-out: IC50, Tracer 1)
1 | CC(C)C[C@H](NC(=O)[C@H](CO)NC(=O)[C@H](CCC(=O)O)NC(=O)CNC(=O)[C@H](C)NC(=O)c1ccccc1)C(=O)N[C@@H](Cc1c[nH]c2ccccc12)C(=O)N[C@@H](CCC(=O)O)C(N)=O [MAI-452] (Bz-AGESLWE-NH2) | 170 ± 10 nM | 440 ± 150 nM | 
2 | CC(C)C[C@H](NC(=O)[C@H](CO)NC(=O)[C@H](CCC(=O)O)NC(=O)CNC(=O)[C@H](C)NC(=O)c1ccco1)C(=O)N[C@@H](Cc1ccc(O)cc1)C(=O)N[C@@H](Cc1ccc(C(=O)c2ccccc2)cc1)C(N)=O [MAI-454] (2Furoyl-AGESLY[Bpa]-NH2) |  | 480 ± 150 nM | 
3 | CSc1nccc(C(=O)N[C@@H](C)C(=O)NCC(=O)N[C@@H](CCC(=O)O)C(=O)N[C@@H](CO)C(=O)N[C@@H](CC(C)C)C(=O)N[C@@H](Cc2ccc(O)cc2)C(=O)N[C@@H](CCC(=O)O)C(N)=O)n1 [MAI-456] (X1-AGESLYE-NH2) |  |  | 570 ± 120 nM
4 | CC(C)C[C@H](NC(=O)[C@H](CO)NC(=O)[C@H](CCC(=O)O)NC(=O)CNC(=O)[C@H](C)NC(=O)c1ccccc1)C(=O)N[C@@H](Cc1ccc(O)cc1)C(=O)N[C@@H](Cc1ccc(C(=O)c2ccccc2)cc1)C(N)=O [MAI-457] (Bz-AGESLY[Bpa]-NH2) |  | 590 ± 200 nM | 
